Assay results taken from ChEMBL document CHEMBL5465560, “Selectivity Literature for EUbOPEN Chemogenomic Library” (2024).

Experiments:
[1] = target: Cyclin-dependent kinase 2 (Homo sapiens, UniProt P24941); conditions: at 10 µM
[2] = target: T1, Dual specificity tyrosine-phosphorylation-regulated kinase 2 (Homo sapiens) (UniProt Q92630); experiment: Selectivity interaction (KinomeScan (DiscoverX)) EUB0000092b DYRK2; conditions: at 10 µM
T1 sequence (whole entry): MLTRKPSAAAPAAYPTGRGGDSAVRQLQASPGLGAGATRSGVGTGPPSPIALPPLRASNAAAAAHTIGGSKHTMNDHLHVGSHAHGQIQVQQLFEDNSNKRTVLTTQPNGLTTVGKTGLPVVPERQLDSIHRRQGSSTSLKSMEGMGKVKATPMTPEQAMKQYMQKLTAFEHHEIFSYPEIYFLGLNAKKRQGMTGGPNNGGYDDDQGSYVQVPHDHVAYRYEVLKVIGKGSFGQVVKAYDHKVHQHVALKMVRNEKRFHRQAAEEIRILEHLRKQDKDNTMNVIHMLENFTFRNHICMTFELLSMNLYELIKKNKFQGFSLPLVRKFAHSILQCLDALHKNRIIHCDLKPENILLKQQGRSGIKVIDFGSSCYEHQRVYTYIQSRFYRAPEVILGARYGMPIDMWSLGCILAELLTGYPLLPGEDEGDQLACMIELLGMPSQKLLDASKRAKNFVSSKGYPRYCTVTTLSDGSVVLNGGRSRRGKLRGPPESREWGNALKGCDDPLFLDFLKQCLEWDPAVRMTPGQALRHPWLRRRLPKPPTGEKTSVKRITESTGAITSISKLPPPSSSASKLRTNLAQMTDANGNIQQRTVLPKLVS

[3] = target: STE20-like serine/threonine-protein kinase (Homo sapiens, UniProt Q9H2G2); experiment: Selectivity interaction (ActivX KiNativ screen (kinase selectivity in THP-1 cell lysates)) EUB0000639a SLK; type: subcellular; conditions: lysate, at 5 µM
[4] = target: Mast/stem cell growth factor receptor Kit (Homo sapiens, UniProt P10721); experiment: Selectivity interaction (KinomeScan (DiscoverX)) EUB0000607a KIT; conditions: at 10 µM
[5] = target: T2, Mitogen-activated protein kinase kinase kinase kinase 3 (Homo sapiens) (UniProt Q8IVH8); experiment: Selectivity interaction (KinomeScan (DiscoverX)) EUB0001049a MAP4K3; conditions: at 1 µM
T2 sequence (whole entry): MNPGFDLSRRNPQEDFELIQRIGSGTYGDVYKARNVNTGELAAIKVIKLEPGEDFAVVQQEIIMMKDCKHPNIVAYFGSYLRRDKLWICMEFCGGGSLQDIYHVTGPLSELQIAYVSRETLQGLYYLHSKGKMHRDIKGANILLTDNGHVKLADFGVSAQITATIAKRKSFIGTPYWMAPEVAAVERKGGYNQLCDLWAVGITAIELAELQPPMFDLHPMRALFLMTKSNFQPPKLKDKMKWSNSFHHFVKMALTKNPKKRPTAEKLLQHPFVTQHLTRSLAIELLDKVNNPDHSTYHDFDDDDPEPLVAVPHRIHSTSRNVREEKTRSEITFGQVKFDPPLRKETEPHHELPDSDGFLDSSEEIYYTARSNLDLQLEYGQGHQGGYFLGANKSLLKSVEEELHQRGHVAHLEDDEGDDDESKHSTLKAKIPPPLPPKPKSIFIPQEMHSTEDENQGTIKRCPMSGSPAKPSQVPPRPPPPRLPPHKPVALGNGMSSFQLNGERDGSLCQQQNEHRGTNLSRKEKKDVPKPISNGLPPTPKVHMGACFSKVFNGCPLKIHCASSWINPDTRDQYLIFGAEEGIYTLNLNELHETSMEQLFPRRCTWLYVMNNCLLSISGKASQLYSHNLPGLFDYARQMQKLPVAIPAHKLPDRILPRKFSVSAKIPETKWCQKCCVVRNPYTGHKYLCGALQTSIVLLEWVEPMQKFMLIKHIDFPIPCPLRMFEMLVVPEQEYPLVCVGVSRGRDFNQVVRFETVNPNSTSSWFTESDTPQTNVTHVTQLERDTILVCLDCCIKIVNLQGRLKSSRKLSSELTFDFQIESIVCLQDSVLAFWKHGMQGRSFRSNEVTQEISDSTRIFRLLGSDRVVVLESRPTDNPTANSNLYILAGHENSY

[6] = target: Macrophage colony-stimulating factor 1 receptor (Homo sapiens) (UniProt P07333); experiment: Selectivity interaction (KinomeScan (DiscoverX)) EUB0000045b CSF1R
[7] = target: Casein kinase I isoform gamma-1 (Homo sapiens) (UniProt Q9HCP0); experiment: Selectivity interaction (KinomeScan (DiscoverX)) EUB0000045b CSNK1G1
[8] = target: Serine/threonine-protein kinase Chk2 (Homo sapiens) (UniProt O96017); experiment: Selectivity interaction (Kinase panel (literature)) EUB0001199aCl CHEK2; conditions: at 1 µM
[9] = target: T3, Ephrin type-A receptor 3 (Homo sapiens) (UniProt P29320); experiment: Selectivity interaction (KinomeScan (DiscoverX)) EUB0000618a EPHA3; conditions: at 10 µM
T3 sequence (whole entry): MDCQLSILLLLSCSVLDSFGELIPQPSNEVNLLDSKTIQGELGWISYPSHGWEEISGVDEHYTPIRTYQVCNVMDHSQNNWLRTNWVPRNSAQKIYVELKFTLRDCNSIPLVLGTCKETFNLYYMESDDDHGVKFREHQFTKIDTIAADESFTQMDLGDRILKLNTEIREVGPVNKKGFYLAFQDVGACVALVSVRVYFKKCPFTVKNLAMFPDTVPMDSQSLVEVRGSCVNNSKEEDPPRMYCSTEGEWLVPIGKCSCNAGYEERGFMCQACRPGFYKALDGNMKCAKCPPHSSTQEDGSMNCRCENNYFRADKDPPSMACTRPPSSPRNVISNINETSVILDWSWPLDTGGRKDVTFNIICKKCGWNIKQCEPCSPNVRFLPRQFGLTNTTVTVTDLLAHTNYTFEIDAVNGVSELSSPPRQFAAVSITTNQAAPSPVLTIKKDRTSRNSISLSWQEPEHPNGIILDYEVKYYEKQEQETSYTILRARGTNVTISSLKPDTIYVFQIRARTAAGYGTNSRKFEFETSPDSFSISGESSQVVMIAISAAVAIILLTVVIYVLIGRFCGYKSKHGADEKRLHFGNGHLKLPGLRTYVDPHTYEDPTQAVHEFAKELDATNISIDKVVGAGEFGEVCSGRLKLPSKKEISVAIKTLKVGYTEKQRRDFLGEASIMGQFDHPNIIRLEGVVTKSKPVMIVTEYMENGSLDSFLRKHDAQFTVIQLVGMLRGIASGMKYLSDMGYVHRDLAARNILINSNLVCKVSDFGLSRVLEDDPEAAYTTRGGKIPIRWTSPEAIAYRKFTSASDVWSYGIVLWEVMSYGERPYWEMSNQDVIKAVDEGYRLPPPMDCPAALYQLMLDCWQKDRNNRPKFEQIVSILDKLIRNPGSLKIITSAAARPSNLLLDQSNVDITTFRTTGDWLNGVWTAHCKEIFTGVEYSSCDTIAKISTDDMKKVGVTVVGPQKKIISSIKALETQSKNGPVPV

Sequence of Macrophage colony-stimulating factor 1 receptor (Homo sapiens) (P07333 whole entry, canonical isoform): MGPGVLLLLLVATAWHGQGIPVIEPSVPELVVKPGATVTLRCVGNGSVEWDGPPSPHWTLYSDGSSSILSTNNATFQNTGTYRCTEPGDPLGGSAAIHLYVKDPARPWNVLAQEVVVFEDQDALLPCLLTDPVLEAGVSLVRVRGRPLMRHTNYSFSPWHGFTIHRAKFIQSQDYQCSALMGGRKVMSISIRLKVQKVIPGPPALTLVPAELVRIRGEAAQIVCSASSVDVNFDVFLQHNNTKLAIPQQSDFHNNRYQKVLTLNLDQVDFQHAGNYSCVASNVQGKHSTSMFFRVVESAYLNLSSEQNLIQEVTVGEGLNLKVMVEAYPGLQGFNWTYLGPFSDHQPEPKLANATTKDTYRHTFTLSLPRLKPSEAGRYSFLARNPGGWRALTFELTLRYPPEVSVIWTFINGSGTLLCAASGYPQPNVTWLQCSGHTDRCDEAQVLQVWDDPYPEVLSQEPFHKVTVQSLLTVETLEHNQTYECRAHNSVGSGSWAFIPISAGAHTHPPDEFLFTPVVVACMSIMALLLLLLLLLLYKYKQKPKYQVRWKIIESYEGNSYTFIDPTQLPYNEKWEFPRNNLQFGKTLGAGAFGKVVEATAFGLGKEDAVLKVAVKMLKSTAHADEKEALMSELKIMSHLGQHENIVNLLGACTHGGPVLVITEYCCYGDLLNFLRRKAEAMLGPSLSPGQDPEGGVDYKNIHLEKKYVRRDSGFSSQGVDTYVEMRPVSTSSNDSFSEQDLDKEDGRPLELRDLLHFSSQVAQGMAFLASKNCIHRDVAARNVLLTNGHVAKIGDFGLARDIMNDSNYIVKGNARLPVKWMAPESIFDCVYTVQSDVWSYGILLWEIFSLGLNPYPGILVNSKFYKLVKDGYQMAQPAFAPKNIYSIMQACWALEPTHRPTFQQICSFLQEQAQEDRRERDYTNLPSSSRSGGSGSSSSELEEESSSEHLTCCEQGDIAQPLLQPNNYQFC
Sequence of Casein kinase I isoform gamma-1 (Homo sapiens) (Q9HCP0 whole entry, looked up, canonical isoform): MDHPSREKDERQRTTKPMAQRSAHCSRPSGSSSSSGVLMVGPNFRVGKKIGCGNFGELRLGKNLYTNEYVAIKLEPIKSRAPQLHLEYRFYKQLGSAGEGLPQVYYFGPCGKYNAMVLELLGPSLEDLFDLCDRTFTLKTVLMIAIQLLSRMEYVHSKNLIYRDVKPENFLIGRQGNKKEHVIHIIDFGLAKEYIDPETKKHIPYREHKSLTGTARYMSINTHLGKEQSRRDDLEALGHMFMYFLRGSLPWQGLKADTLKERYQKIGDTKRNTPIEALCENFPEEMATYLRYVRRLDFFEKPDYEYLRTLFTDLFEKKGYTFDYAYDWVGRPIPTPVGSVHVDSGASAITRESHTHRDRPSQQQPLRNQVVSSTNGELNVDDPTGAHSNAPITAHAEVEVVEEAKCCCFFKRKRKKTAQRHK
Sequence of Mast/stem cell growth factor receptor Kit (P10721 whole entry): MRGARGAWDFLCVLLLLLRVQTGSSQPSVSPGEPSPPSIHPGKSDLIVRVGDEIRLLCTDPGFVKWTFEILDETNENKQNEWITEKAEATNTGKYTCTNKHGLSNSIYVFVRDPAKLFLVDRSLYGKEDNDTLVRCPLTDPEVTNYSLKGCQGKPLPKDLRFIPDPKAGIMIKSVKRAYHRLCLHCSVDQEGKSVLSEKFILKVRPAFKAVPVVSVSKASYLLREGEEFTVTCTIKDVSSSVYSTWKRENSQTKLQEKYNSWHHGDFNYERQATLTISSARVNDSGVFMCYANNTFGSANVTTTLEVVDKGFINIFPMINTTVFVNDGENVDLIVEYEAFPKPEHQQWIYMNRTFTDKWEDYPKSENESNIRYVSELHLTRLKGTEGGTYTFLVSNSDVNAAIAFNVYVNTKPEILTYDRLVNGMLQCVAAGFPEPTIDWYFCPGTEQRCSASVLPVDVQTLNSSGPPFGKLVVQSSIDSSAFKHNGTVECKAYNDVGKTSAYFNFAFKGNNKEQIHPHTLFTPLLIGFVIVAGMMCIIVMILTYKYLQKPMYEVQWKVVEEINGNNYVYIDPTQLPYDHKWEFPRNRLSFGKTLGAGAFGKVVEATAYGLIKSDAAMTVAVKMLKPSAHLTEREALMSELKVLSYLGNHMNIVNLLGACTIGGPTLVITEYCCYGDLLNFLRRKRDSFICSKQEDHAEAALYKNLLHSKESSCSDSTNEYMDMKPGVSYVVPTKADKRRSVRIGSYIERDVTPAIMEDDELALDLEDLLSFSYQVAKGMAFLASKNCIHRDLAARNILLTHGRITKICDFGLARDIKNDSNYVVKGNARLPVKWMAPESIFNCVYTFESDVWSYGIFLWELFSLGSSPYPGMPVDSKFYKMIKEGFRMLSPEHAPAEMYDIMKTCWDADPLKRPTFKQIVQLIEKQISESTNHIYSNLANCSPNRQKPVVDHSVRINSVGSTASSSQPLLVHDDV
Sequence of Serine/threonine-protein kinase Chk2 (Homo sapiens) (O96017 whole entry): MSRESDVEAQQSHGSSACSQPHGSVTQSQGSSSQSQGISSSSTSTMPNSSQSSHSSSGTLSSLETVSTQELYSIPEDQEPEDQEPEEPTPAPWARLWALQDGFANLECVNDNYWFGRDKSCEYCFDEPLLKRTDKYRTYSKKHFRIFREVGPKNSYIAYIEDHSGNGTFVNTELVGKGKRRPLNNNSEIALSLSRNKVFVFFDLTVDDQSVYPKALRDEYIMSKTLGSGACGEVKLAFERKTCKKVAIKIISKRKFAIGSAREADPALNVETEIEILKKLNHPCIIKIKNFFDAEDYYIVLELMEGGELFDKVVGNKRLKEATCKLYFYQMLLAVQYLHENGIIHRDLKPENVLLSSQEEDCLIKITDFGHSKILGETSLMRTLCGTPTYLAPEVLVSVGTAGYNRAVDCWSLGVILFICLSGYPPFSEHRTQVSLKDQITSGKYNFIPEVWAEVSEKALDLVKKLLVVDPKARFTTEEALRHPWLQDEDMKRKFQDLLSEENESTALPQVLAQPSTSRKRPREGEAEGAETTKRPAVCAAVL
Sequence of STE20-like serine/threonine-protein kinase (Q9H2G2 whole entry, looked up): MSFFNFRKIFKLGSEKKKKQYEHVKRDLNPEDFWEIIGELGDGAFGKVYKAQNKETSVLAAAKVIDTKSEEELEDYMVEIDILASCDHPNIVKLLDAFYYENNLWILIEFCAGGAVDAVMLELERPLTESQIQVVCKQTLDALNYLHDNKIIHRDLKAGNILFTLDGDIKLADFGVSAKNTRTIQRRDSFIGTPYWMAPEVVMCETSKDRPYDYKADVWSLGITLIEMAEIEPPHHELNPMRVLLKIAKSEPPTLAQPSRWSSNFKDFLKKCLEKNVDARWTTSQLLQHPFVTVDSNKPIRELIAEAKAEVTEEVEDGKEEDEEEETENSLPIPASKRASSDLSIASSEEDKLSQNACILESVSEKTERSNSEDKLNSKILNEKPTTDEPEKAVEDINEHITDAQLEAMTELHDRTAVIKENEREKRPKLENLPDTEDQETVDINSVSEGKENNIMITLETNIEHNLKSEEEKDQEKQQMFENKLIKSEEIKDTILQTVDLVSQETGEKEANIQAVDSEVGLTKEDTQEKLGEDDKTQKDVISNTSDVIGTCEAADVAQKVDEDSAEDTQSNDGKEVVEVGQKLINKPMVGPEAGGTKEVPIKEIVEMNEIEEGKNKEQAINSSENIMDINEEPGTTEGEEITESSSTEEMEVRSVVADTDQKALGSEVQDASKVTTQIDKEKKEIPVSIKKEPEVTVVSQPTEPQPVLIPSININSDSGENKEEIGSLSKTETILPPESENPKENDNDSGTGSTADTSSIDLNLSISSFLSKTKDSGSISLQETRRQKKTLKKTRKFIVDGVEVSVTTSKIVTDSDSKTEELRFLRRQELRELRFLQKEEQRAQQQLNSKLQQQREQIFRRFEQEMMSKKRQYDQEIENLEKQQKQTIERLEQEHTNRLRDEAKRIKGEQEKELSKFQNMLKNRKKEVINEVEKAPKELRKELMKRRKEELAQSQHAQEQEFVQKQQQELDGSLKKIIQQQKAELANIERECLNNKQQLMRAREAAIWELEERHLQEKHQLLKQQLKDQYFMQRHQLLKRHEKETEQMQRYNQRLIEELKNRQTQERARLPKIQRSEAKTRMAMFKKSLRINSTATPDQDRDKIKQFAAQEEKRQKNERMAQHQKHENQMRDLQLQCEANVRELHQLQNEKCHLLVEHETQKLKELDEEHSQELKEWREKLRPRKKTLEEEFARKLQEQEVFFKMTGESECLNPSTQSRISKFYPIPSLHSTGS

## CCN(CC)CCCCNc1ncc2cc(-c3cc(OC)cc(OC)c3)c(NC(=O)NC(C)(C)C)nc2n1
[1]
  % of control: 100%

## CCC(=O)N1CCN(c2ccc(-n3c(=O)ccc4cnc5ccc(-c6cnc7ccccc7c6)cc5c43)cc2C(F)(F)F)CC1
[2]
  % of control: 86%

## CC[C@@H]1[C@H](F)C(=O)N[C@@H]1COc1nccc2cc(C(N)=O)c(OC)cc12 [ZIMLOVISERTIB]
[3]
  % of inhibition: -0.8%

## CNC(=O)Nc1ccc(-c2nc(N3CC4CCC(C3)O4)c3cnn(C4CCC5(CC4)OCCO5)c3n2)cc1
[4]
  % of control: 93%

## COc1cc(Nc2nc(C)cc(-c3cnn4nc(OC)ccc34)n2)cc(C(F)(F)F)c1
[5]
  % of control: 100%

## C=CC(=O)Nc1cc(-n2c(=O)ccc3cnc4ccc(-c5ccc(NS(C)(=O)=O)cc5)cc4c32)ccc1C
[6]; at 1 µM
  % of control: 94%
[6]; at 10 µM
  % of control: 87%
[7]; at 1 µM
  % of control: 100%
[7]; at 10 µM
  % of control: 75%

## CN1Cc2nccc(-c3cn(C)nc3-c3ccc(F)cc3)c2C1=O
[8]
  % of inhibition: 0%

## O[C@H]1CC[C@H](Nc2ncc3nc(Nc4c(F)cc(F)cc4F)n([C@H]4CCOC4)c3n2)CC1
[9]
  % of control: 85%
